What all share (assay): NCI-60 cell line screen, 48 h
For assay [1], the system named is ACHN renal.
Assay [2] concerns IGROV1 ovarian.
Assay [3] relates to K-562 leukemia.
In assay [4] the test system is MOLT-4 leukemia.
For assay [5], the system named is OVCAR-8 ovarian.
Assay [6] relates to SK-MEL-5 melanoma.
For assay [7], the system named is TK-10 renal.
Assay [8] relates to U251 CNS.
The subject of assay [9] is OVCAR-5 ovarian.
Assay [10] concerns NCI-H226 lung.

SMILES strings stand for the structures.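 Step 1: Grow cells in 96-well plates. Step 2: Expose to compound for 48 hours at 5 concentrations. Step 3: Interpolate endpoints linearly; if unreached, use highest concentration. GI50 is the concentration that inhibits growth by half. Definition used: TGI = concentration required for complete inhibition of growth.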 Some results are limits rather than exact numbers.

As to `Cc1c(C#N)c(=O)[nH]c(=O)n1CCN1CCN(C(=O)NCCCCCCNC(=O)N2CCN(CCn3c(C)c(C#N)c(=O)[nH]c3=O)CC2)CC1`, the TGI in assay [1], in assay [2], in assay [3], in assay [4], in [5] and in assay [6] was more than 100 µM in each case. Moreover, the TGI in assay [7] and in [8] was more than 100 µM throughout.
For `COc1ccc(C2CC(c3cc(OC)c(OC)c(OC)c3)=NN2C(C)=O)cc1OCC(=O)Nc1nc2ccc(C(F)(F)F)cc2s1` (stereo not drawn), the GI50 in [1] is 2.48 µM; in assay [2], 5.3 µM; in assay [9], 28.2 µM; in [5], 3.36 µM; in [6] it was 3.56 µM; in [7], 2.85 µM. Moreover, the GI50 in [8] is 3.08 µM. For the same molecule, the TGI in [1] is 7.13 µM; in assay [2] it was more than 100 µM; in assay [9], more than 100 µM; in [5] it was more than 100 µM; in assay [6] it was more than 100 µM; in assay [7], 7.77 µM. The TGI in [8] came to 9.9 µM.
Turning to `CCN(C(=O)N1CCN(c2cc3c(cc2F)c(=O)c(C(=O)O)cn3C2CC2)CC1)c1nc(-c2ccc(C)cc2)cs1`, the GI50 in assay [1] was 0.976 µM; in assay [2], 0.354 µM; in [3], 0.431 µM; in assay [4] it was 0.469 µM; in assay [9] it was 0.68 µM; in assay [5], 1.41 µM. Further, the GI50 in [6] is 0.858 µM; in assay [7], 2.7 µM; in [8], 1.04 µM. Besides, the TGI in [1], in assay [2], in assay [3], in assay [4], in assay [9] and in [5] was more than 100 µM throughout. Further, the values for the TGI in [6], in [7] and in assay [8] were more than 100 µM, more than 33.3 µM and more than 20.9 µM, respectively.
Consider `O=[N+]([O-])c1cccc(-c2nc3sccn3c2-c2ccnc(NCCCNS(=O)(=O)c3cccc(F)c3)n2)c1`, for which the GI50 is 2.19 µM in [1]; 2.71 µM in [2]; 1.73 µM in assay [3]; 1.66 µM in assay [10]; 7.83 µM in assay [9]; 1.89 µM in [5]. For the same molecule, the figures for the GI50 in [6], in assay [7] and in assay [8] were 0.824 µM, 5.38 µM and 4.56 µM, respectively. Moreover, the TGI in [1] was 11.2 µM; in assay [2] it was 11.6 µM; in assay [3], more than 100 µM; in assay [10], 8.22 µM; in assay [9] it was more than 100 µM; in assay [5], 17.7 µM. Also, the TGI in [6] came out at 2.1 µM; in [7], 52 µM; in [8], 39.4 µM.
In the case of `O=c1[nH]c2ccccc2nc1-c1c[nH]c2ccccc12`, the GI50 is more than 100 µM in assay [1]; 1.26 µM in [2]; more than 100 µM in assay [3]; more than 100 µM in [4]; more than 100 µM in [9]; more than 100 µM in assay [5]. The GI50 in assay [6], in assay [7] and in assay [8] was more than 100 µM throughout. The TGI in [1], in assay [2], in assay [3], in assay [4], in [9] and in assay [5] was more than 100 µM in each case. Besides, the TGI in assay [6], in [7] and in assay [8] was more than 100 µM each time.
As to `CN1CCN(Cc2ccc(NC(=O)c3cncc(C#Cc4cnc(N)c5ccncc45)c3)cc2C(F)(F)F)CC1`, the GI50 in [1] was 0.581 µM; in [2], 0.331 µM; in assay [3], 0.0146 µM; in assay [4] it was 0.328 µM; in assay [9], 0.855 µM; in assay [5], 1.42 µM. For the same molecule, the GI50 is 1.18 µM in assay [6], 1.56 µM in assay [7] and 0.782 µM in assay [8]. In addition, the TGI is 4.02 µM in assay [1]; 2.89 µM in [2]; 5.21 µM in [3]; 8.68 µM in assay [4]; more than 50 µM in [9]; 8.86 µM in [5]. Besides, the TGI came out at 3.93 µM in assay [6], 7.84 µM in assay [7] and 7.65 µM in assay [8].
With `O=C(/C(=C/c1ccc([N+](=O)[O-])cc1)c1ccccc1)c1ccccc1`, the GI50 is 3.25 µM in assay [2], 3.08 µM in [3], 4.91 µM in [9] and 3.43 µM in assay [7]. Besides, the TGI in assay [2], in [3], in assay [9] and in [7] was more than 100 µM throughout.
Consider `COc1cc2c(c(OC)c1OC)-c1ncc3cc(OC)c(OC)c(OC)c3c1C2`, for which the GI50 in assay [1] was 24 µM; in assay [2] it was 25.2 µM; in [3], 15.3 µM; in assay [9] it was 22.5 µM; in [5], 6.09 µM; in assay [6], 15.5 µM. The figures for the GI50 in [7] and in assay [8] were 23.3 µM and 33 µM, respectively. The TGI in assay [1] was 78.7 µM; in [2], 63.2 µM; in assay [3], 50.8 µM; in assay [9], more than 100 µM; in assay [5], 34.7 µM; in assay [6], 29.5 µM. Also, the TGI in [7] was 80.6 µM; in [8], more than 100 µM.
Consider `c1ccc(SC(CCCCC(Sc2ccccc2)Sc2ccccc2)Sc2ccccc2)cc1`, for which the TGI in [1], in [3], in assay [4], in [5], in [6] and in assay [7] was more than 100 µM each time. In [8], this molecule showed a TGI of more than 100 µM.
Take `O=C(O)C1(P(=O)(O)O)CC1`: the TGI in assay [1], in assay [2], in [3], in assay [4], in [5] and in assay [6] was more than 100 µM in each case. The TGI in assay [7] and in [8] was more than 100 µM each time.

The values above are taken from PubChem BioAssay (NCI).
